Test results reported in US7220750B2, “Bicyclic heterocycles, pharmaceutical compositions containing these compounds, their use and processes for preparing them” (Boehringer Ingelheim Pharma GmbH & Co. KG, priority 1999, dated 2007).

Test system: not given
Test: not given
Settings: not given

melting point | Structure (SMILES)
~ 145 °C (dec.) | CCN(CC)CC=CC(=O)Nc1cc2c(Nc3ccc(F)c(Cl)c3)ncnc2cc1OCC1CC1 [Example 3, 4-[(3-Chloro-4-fluorophenyl)amino]-6-{[4-(N,N-diethylamino)-1-oxo-2-buten-1-yl]amino}-7-cyclopropylmethoxyquinazoline]

Molecular target: T1, human EGF-R (Homo sapiens, UniProt P00533)
T1 construct: expressed in transfected cells; host or cells: F/L-HERc cells (murine IL-3-dependent FDC-P1 line transduced with LXSN retroviral vector carrying human EGF-R cDNA; packaging line GP+E86)
Test: Inhibition of EGF-dependent proliferation of F/L-HERc cells (Cell Titer 96 assay)
Type: cell-based
Settings: F/L-HERc cells (murine IL-3-dependent line expressing human EGF-R), stimulated with EGF 20 ng/ml, 48 hours
From the text: A cell line of murine origin dependent on interleukin-3-(IL-3) which was genetically modified to express functional human EGF-R was used here. The proliferation of these cells known as F/L-HERc can therefore be stimulated either by murine IL-3 or by EGF (cf. T. von Rüden et al., EMBO J. 7, 2749–2756 (1988) and J. H Pierce et al., Science 239, 628–631 (1988)).
The starting material used for the F/L-HERc cells was the cell line FDC-P1, the production of which has been described by T. M. Dexter et al., J. Exp. Med. 152, 1036–1047 (1980). Alternatively, however, other growth-factor-dependent cells may also be used (cf., for example, J. H. Pierce et al., Science 239, 628–631 (1988); H. Shibuya et al., Cell 70, 57–67 (1992); and W. S. Alexander et al., EMBO J. 10, 3683–3691 (1991)). For expressing the human EGF-R cDNA (cf. Ullrich, A. et al. in Nature 309, 418–425 (1984)) recombinant retroviruses were used as described by T. von Rüden et al., EMBO J. 7, 2749–2756 (1988), except that the retroviral vector LXSN (cf. A. D. Miller et al., BioTechniques 7, 980–990 (1989)) was used for the expression of the EGF-R cDNA and the line GP+E86 (cf. D. Markowitz et al., J. Virol. 62, 1120–1124 (1988)) was used as the packaging cell.
F/L-HERc cells were cultivated in RPMI/1640 medium (BioWhittaker), supplemented with 10% fetal calf serum (FCS, Boehringer Mannheim), 2 mM glutamine (BioWhittaker), standard antibiotics and 20 ng/ml of human EGF (Promega), at 37° C. and 5% CO2. In order to investigate the inhibitory activity of the compounds according to the invention, 1.5×10^4 cells per well were cultivated in triplicate in 96-well dishes in the above medium (200 μl), the cell proliferation being stimulated with either EGF (20 ng/ml) or murine IL-3. The IL-3 used was obtained from culture supernatants of the cell line X63/0 mIL-3 (cf. H. Karasuyama et al., Eur. J. Immunol. 18, 97–104 (1988)). The compounds according to the invention were dissolved in 100% dimethylsulfoxide (DMSO) and added to the cultures in various dilutions, the maximum DMSO concentration being 1%. The cultures were incubated for 48 hours at 37° C.
In order to determine the inhibitory activity of the compounds according to the invention the relative cell number was measured in O.D. units using the Cell Titer 96™ Aqueous Non-Radioactive Cell Proliferation Assay (Promega). The relative cell number was calculated as a percentage of the control (F/LHERc cells without inhibitor) and the concentration of active substance which inhibits the proliferation of the cells by 50% (IC50) was derived therefrom.

T1 sequence (P00533 25-1210): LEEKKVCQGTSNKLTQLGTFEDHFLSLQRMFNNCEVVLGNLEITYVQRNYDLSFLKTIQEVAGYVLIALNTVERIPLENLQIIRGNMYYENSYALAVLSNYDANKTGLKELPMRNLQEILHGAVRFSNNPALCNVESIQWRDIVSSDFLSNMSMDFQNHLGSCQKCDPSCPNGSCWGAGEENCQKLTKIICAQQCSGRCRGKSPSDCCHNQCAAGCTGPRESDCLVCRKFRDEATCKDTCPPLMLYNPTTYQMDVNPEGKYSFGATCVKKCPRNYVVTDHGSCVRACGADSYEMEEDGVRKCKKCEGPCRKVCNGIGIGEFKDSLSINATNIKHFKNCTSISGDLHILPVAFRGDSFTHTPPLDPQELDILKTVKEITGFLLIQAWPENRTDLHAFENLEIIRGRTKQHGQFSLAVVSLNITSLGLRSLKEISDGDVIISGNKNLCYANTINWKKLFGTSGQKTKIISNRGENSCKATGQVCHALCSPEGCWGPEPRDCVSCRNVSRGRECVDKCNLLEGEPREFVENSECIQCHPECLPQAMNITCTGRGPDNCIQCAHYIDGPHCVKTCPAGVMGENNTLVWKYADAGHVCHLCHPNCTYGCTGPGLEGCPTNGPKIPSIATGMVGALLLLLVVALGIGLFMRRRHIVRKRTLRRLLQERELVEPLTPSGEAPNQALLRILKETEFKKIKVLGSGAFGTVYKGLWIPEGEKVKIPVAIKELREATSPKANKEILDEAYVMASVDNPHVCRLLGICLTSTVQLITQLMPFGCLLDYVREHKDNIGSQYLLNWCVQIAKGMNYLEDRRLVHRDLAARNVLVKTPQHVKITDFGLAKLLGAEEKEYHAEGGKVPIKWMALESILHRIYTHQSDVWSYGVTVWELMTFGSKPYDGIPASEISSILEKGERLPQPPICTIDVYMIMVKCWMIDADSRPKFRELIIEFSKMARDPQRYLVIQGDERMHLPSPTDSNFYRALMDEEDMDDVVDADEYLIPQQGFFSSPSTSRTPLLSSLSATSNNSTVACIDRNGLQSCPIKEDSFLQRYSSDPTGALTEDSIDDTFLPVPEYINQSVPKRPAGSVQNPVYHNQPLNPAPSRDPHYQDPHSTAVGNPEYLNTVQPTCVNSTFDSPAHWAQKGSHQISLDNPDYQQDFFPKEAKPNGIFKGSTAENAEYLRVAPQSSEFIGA

Structure (SMILES) | IC50 [nM]
C=CC(=O)Nc1cc2c(Nc3ccc(F)c(Cl)c3)ncnc2cc1OCCCC1CCN(C)CC1 [1(7), 4-[(3-Chloro-4-fluorophenyl)amino]-7-[3-(1-methylpiperidin-4-yl)propyloxy]-6-[(vinylcarbonyl)amino]quinazoline] | < 0.5
CCN(CC)CC=CC(=O)Nc1cc2c(Nc3ccc(F)c(Cl)c3)ncnc2cc1OCC1CC1 [Example 3, 4-[(3-Chloro-4-fluorophenyl)amino]-6-{[4-(N,N-diethylamino)-1-oxo-2-buten-1-yl]amino}-7-cyclopropylmethoxyquinazoline] | 5

The next lines start with the values.

IC50 [nM] | Structure (SMILES)
0.35 | CC#CC(=O)Nc1cc2c(Nc3cccc(Br)c3)ncnc2cc1OCCCC1CCN(C)CC1 [2(3), 4-[(3-Bromophenyl)amino]-7-[3-(1-methylpiperidin-4-yl)propyloxy]-6-[(1-oxo-2-butyn-1-yl)amino]quinazoline]
0.2 | O=C(C=CCN1CCOCC1)Nc1cc2c(Nc3ccc(F)c(Cl)c3)ncnc2cc1OCC1CC1 [3(1), 4-[(3-Chloro-4-fluorophenyl)amino]-6-{[4-(morpholin-4-yl)-1-oxo-2-buten-1-yl]amino}-7-cyclopropylmethoxyquinazoline]
< 0.35 | C=CC(=O)Nc1cc2c(Nc3cccc(Br)c3)ncnc2cc1OCCCC1CCN(C)CC1 [Example 1, 4-[(3-Bromophenyl)amino]-7-[3-(1-methylpiperidin-4-yl)propyloxy]-6-[(vinylcarbonyl)amino]quinazoline]
